Common to all, as to assay type: functional, cell-based
One test concerns COLO 205. In words: Cytotoxicity against human COLO205 cells after 2 days. The note with it: COLO 205, 48 h.
The nature of test [1]: Cytotoxicity against human LOX cells after 2 days. The note with it: 48 h.
A further test has as its system OVCAR-3. Put plainly: Cytotoxicity against human OVCAR-3 cells after 2 days. To be noted: OVCAR-3, 48 h.
The subject of another test is MOLT-4. In words: Cytotoxicity against human MOLT4 cells after 2 days. The note with it: MOLT-4, 48 h.

The structures appear in SMILES notation. In brackets after ≈: the same amount, converted by molar mass.

The text below walks through data of ChEMBL document CHEMBL1156377, “New cytotoxic N-methylated beta-carboline alkaloids from the marine ascidian Eudistoma gilboverde” (J Nat Prod, 2001).

Broadly, the IC50 is the concentration at which inhibition is half-maximal.

As for `CSC[C@H](c1nccc2c1[nH]c1ccc(O)c(Br)c12)N(C)C`, the concentration for half-maximal inhibition (IC50) in the test with COLO 205 was 0.42 µg/mL (≈ 1.1 µM); in test [1], 0.41 µg/mL (≈ 1.08 µM); with OVCAR-3, 0.98 µg/mL (≈ 2.58 µM); in the test with MOLT-4, 0.57 µg/mL (≈ 1.5 µM).
Take `C[n+]1ccc2c(c1)[nH]c1ccc(O)c(Br)c12.[Cl-]`: the IC50 was found to be 19.1 µg/mL with COLO 205, 15 µg/mL in test [1], 20 µg/mL in the test with OVCAR-3 and 16.6 µg/mL in the test on MOLT-4.
As for `C[n+]1ccc2c(c1)[nH]c1cc(Br)c(O)cc12.[Cl-]`, the half-inhibitory concentration (IC50) amounted to 15.1 µg/mL with COLO 205, 15.1 µg/mL in test [1], 20 µg/mL with OVCAR-3 and 17.5 µg/mL in the test on MOLT-4.
